US8691183B2, “Means for the detection and treatment of prostate cells” (Eberhard-Karls-Universitaet Tuebingen Universitaetsklinikum, priority 2008, dated 2014)
“Also recorded” adds a separate entry of the source.

Columns and labels:
[1] = tested on: PC-3 prostate carcinoma cells; assay: Confocal laser scanning microscopy (CLSM) of cellular uptake; type: cell-based, human; settings: 20 minutes incubation
Description: (§1) The cells were grown to 80% confluency at 37° C., 5% CO2 (vol/vol) in 4-well plates (NUNC, Wiesbaden, Germany) with about 300,000 cells per well.
(§2) U373 human glioma cells, human prostate carcinoma cells PC3 and LNCaP, human Jurkat lymphoma cells, and human colon carcinoma cells Colo205 were grown in RPMI1640 ready mix medium containing L-glutamine and 10% fetal bovine serum (FBS)-gold (PAA Laboratories, Pasching, Austria). U2OS human osteosarcoma cells and HeLa human cervix carcinoma cells were grown in high glucose Dulbeccos modified Eagle's medium containing GlutaMax™ and pyrovate and 10% FBS-gold. Healthy human prostate cells (CC2555, Lonza, Verviers, Belgium) were cultivated in prostate endothelial cell growth medium (PrEGM, Lonza, Verviers, Belgium).
(§3) The compounds 1, 2 and 4 were dissolved at 1 mg/ml in pure ethanol (Riedel de Haen, Sigma-Aldrich, Taufkirchen, Germany) and then diluted in the appropriate medium for the cells to 10 μg/ml of conjugate and 1% ethanol. The cells were incubated at 37° C. in an atmosphere of 5% CO2 for 20 minutes with the compounds. After this, the cells were rinsed three times with medium and then incubated with medium again. This experiment was also performed with free sulforhodamine B with a corresponding amount.
The compound 10 was dissolved in culture medium (260 μM). Lys(FITC)-aminobourgeonal (compound 7) was dissolved in culture medium with 1% ethanol (260 μM). The cells were incubated for 20 minutes (compound 10) and for 2 days (compounds 7 and 10). This assay was also performed with free FITC. After the incubation the cells were rinsed three times with medium and again incubated in medium. Propidium iodide (PI) (molecular probes, Eugene, Oreg., USA) was added to stain death cells.
(§4) The confocal laser scanning microscopy was performed on an inverted LSM510 laser scanning microscope (Carl Zeiss) (objective: LD Achroplan 40×0.6, Plan Neofluar 20×0.50, 40×0.75). For the rhodamine fluorescence excitation the 543 nm beam of a helium-neon laser with suitable beam splitters and barrier filters were used. […]

[2] = tested on: LNCaP prostate carcinoma cells; assay: as above; type: cell-based, human; settings: 20 minutes incubation, 10 μg/ml
Description: as §1, §2, §3
(§5) The confocal laser scanning microscopy was performed on an inverted LSM510 laser scanning microscope (Carl Zeiss) (objective: LD Achroplan 40×0.6, Plan Neofluar 20×0.50, 40×0.75). For the rhodamine fluorescence excitation the 543 nm beam of a helium-neon laser with suitable beam splitters and barrier filters were used. All measures were performed at least three times on living, non-fixed cells.

[3] = tested on: non-prostate tumor cell lines (colo 205 colon carcinoma, U373 glioma, U2OS osteosarcoma, HeLa cervix carcinoma, jurkat lymphoma); assay: as above; type: cell-based, human; settings: all other (non-prostate) tumor cells; 20 minutes incubation; 10 μg/ml
Description: as §1, §2, §3, §5

[4] = tested on: healthy human epithelial prostate cells (CC2555); assay: as above; type: cell-based; settings: 20 minutes incubation, 10 μg/ml
Description: as §1, §2
The compounds 1, 2 and 4 were dissolved at 1 mg/ml in pure ethanol (Riedel de Haen, Sigma-Aldrich, Taufkirchen, Germany) and then diluted in the appropriate medium for the cells to 10 μg/ml of conjugate and 1% ethanol. The cells were incubated at 37° C. in an atmosphere of 5% CO2 for 20 minutes with the compounds. […]
as §4

[5] = tested on: human prostate carcinoma (PC3) implanted into nude mice; assay: CLSM of frozen sections of implanted tumor after intraperitoneal injection; type: in vivo, nude mouse
Description: (§6) PC3 and LNCaP prostate tumor cells were grown to 80% confluency, detached with Accutase™ (PAA Laboratories, Pasching, Austria) and then harvested. The cells were washed with PBS three times and then drawn up into a 30 g Micro-Fine™ insulin syringe (Becton Dickinson, Franklin Lakes, N.J., USA). Approximately 5×10^5 cells per mouse were injected into the right thigh of a male CD1 Nu/Nu mouse (Charles River, WIGA, Sulzfeld, Germany). The tumor growth was monitored and after 10 to 14 days mice bearing tumors with 2-3 mm in diameter were treated with the conjugate. 1.5 mg of the compound 1 were dissolved in 300 μl PBS containing 20% ethanol and applied intraperitoneally. After 90 minutes of circulation the mice were sacrificed and subsequently the tumors and organs were removed, embedded in Jung tissue freezing medium (Leica Instruments, Nussloch, Germany) and frozen in liquid nitrogen. Frozen sections (5 μm thickness) were prepared (LD3000 Cryotom, Leica Biosystems GmbH, Nussloch, Germany) and the rhodamine staining was analyzed by confocal laser scanning
To evaluate the in- and efflux of the rhodamine conjugated compound 1, the experiment was repeated with circulation times of 20 minutes and 180 minutes.
(§7) The experiments were repeated two times.

nude mice organs = assay: CLSM of frozen sections of nude mice organs after intraperitoneal injection; type: in vivo, nude mouse; settings: 90 minutes after intraperitoneal injection
Description: as §6, §7

PC3 prostate carcinoma = assay: Touch prints of the tumor after intraperitoneal injection; type: in vivo, nude mouse; settings: 20 minutes after intraperitoneal injection; no fixation
Description: For touch prints, the tumor of a mouse treated with the rhodamine containing compound 1 (1.5 mg intraperitoneally for 20 minutes) was excised. The tumor was cut and the cells were streaked onto a slide without fixation. The tumor cells were immediately analyzed by CLSM (without fixation).
as §7

[6] = Tolerability in the animals; type: in vivo; settings: intraperitoneal injection, nude mice
[7] = tested on: osteosarcoma cells (U2OS); assay: Confocal laser scanning microscopy (CLSM) of cellular uptake; type: cell-based, human; settings: 20 minutes incubation, 260 μM
Description: as §1, §2
The compound 10 was dissolved in culture medium (260 μM). Lys(FITC)-aminobourgeonal (compound 7) was dissolved in culture medium with 1% ethanol (260 μM). The cells were incubated for 20 minutes (compound 10) and for 2 days (compounds 7 and 10). This assay was also performed with free FITC. […]
as §4

[8] = tested on: LNCaP prostate carcinoma cells; assay: Fluorescence activated cell sorting (FACS) of cellular uptake; type: cell-based, human; settings: 20 minutes incubation, 130 μM
Description: (§8) For the fluorescence activated cell sorting (FACS), cells were grown in 75 cm^2 culture flasks (Corning Costar, Bodenheim, Germany) (80% confluency) under the same conditions as described for the confocal laser scanning microscopy. Accutase™ (PAA Laboratories, Pasching, Austria) was added to achieve detachment of the cells, which were harvested and subsequently alequoted into Eppendorf tubes (Eppendorf, Hamburg, Germany) (1×10^6 cells per tube). The cells were incubated for 20 minutes with the compounds 1, 2 and 4 (10 μg/ml in the appropriate medium with 1% ethanol) and the compound 10 (130 μM in the appropriate medium).
(§9) Afterwards, the cells were washed three times in PBS and centrifuged at 800 rpm for 5 minutes. Then 300 μl FACS buffer (D-PBS containing 1% parafomaldehyde) were added. The samples were measured immediately. Approximately 20,000 events were recorded per sample. The fluorescence excitation was achieved by an argon laser (488 nm). The fluorescence was detected using a 580-610 and a 560-680 nm band-pass filter. All investigations were performed in triplicate.
(§10) Mean rhodamine and fluorescein isothiocyanate fluorescence values of the samples were acquired using the WinMDI software (Joseph Trotter, Scripps Research Institute, San Diego, Calif., USA) and then statistically evaluated.

[9] = tested on: PC-3 prostate carcinoma cells; assay: as above; type: cell-based, human; settings: PC-3; 20 minutes incubation; 130 μM
Description: as §8, §9, §10

[10] = tested on: healthy prostate cells (CC2555); assay: as above; type: cell-based, human; settings: 20 minutes incubation, 130 μM
Description: as §8, §9, §10

[11] = tested on: non-prostate tumor cell lines; assay: as above; type: cell-based, human; settings: non-prostate tumor cell lines; 20 minutes incubation; 130 μM
Description: as §8, §9, §10

[12] = tested on: LNCaP prostate carcinoma cells; assay: In-vitro MRT / MR relaxometry of cells in Eppendorf tubes; type: cell-based, human
Description: (§11) For the MR relaxometry, all tumor cell lines were grown in 75 cm^2 culture flasks (Corning Costar, Bodenheim, Germany) (70% confluency). Accutase™ (PAA Laboratories, Pasching, Austria) was added to achieve detachment of the cells, which were harvested and subsequently aliquoted into Eppendorf tubes (6×10^6 cells per tube). The cells in the tubes were incubated with the DOTA-containing compounds (130 μM). After a 20 minutes incubation period at 37° C. in an atmosphere of 5% CO2, the cells were washed three times in PBS and centrifuged at 800 rpm for 5 minutes.
(§12) The in-vitro MRT was performed with a 3 Tesla-whole body MRT system (Magnetom TRIO, circular polarized wrist coil, Siemens, Erlangen, Germany)
(§13) Sagittal T1-weighted MR images were obtained using the following spin-echo sequence:
(§14) Repetition time (TR): 200 ms, echo time (TE): 7,4 ms, flip angle: 90°, averages: 1, concatenations: 2, measurements: 1, number of slices: 19, distance factor: 30%, slice thickness: 3 mm, field of view read: 180 mm/100%, resolution: 256/100%, voxel size: 0.7×0.7×3.0 mm, scan time: 1:48 min.
(§15) The T1 relaxation times were evaluated from signal intensities obtained by multiple spin-echo measurements:
(§16) Repetition time (TR): 20-8000 ms (50 different TR values), echo time (TE): 6.4 ms, flip angle: 90°, averages: 1, measurements: 1, number of slices: 1, slice thickness: 1 mm, field of view read: 120 mm/87.5%, resolution: 128/100%, voxel size: 0.9×0.9×1 mm.
(§17) The analysis and calculations were performed using a Matlab program (Math Works, Natick, Mass., USA). The T1 values were approximated by a three-parameter fit procedure. All signal curves were examined and found to be monoexponential. The investigations were performed in triplicate.

[13] = tested on: PC-3 prostate carcinoma cells; assay: as above; type: cell-based, human; settings: rank among cell lines
Description: as §11, §12, §13, §14, §15, §16, §17

[14] = tested on: healthy prostate cells (CC2555); assay: as above; type: cell-based, human; settings: rank among cell lines
Description: as §11, §12, §13, §14, §15, §16, §17

[15] = tested on: other tumor cell lines (non-prostate); assay: as above; type: cell-based, human; settings: other carcinoma cells; incubation, washed three times with PBS
Description: as §11, §12, §13, §14, §15, §16, §17

[16] = tested on: human PC3 prostate carcinoma in the right thigh of a nude mouse; assay: Magnetic resonance tomography of nude mouse with implanted tumor; type: in vivo; settings: 90 minutes after intravenous administration
Description: as §6, with “After 90 minutes of circulation the mice were sacrificed and subsequently the tumors and organs were removed, embedded in Jung tissue freezing medium (Leica Instruments, Nussloch, Germany) and frozen in liquid nitrogen.” left out
The magnetic resonance tomography (MRT) measurements were performed using a clinical 3-Tesla Siemens whole body MRT (Magnetom TRIO; Siemens, Erlangen, Germany) with the mice in prone position in a standard circular polarized wrist coil. The MRT protocol consisted of native and post-contrast T1 weighted axial images: slice thickness 2 mm, field of view read: 60 mm/7.5%, Voxel size: 0.2×0.2×2 mm, repetition time (TR): 800 ms, echo time (TE): 9.1 ms, flip angle: 90°, acquisitions: tions: 2, number of slices: 25, distance factor: 0, scan time 06:02 min. […]

CCN(CC)c1ccc2c(-c3ccc(S(=O)(=O)NCCCCCCCCCCC=O)cc3S(=O)(=O)O)c3ccc(=[N+](CC)CC)cc-3oc2c1 [compound 1, sulforhodamine-sulfonamido-aminoundecylic aldehyde]
uptake into the cells (rhodamine staining, CLSM) ([1]; 10 μg/ml): take up the compound according to the invention into the cytoplasm | uptake into the cells (rhodamine staining, CLSM) [2]: take up the compound according to the invention into the cytoplasm | uptake into the cells (rhodamine staining, CLSM) [3]: do not take up the compound according to the invention | uptake into the cells (rhodamine staining, CLSM) [4]: take up the compound according to the invention into the cytoplasm | absorption into the cytoplasm of the prostate carcinoma cells ([5]; 20 minutes after intraperitoneal injection): very well absorbed | rhodamine fluorescence of the prostate carcinoma in frozen sections ([5]; 90 minutes after intraperitoneal injection, in comparison to lymph nodes and lung): significantly stronger red fluorescence | compound in the cytoplasm of the prostate carcinoma cells ([5]; 180 minutes after intraperitoneal injection): efflux of the compound out of the cytoplasm | staining of healthy prostate tissue of the mouse (nude mice organs): almost no staining | compound in tumor cells of touch prints (PC3 prostate carcinoma): reached the cytoplasm of the prostate carcinoma cells | tolerability [6]: very well tolerated by the animals

O=CCCCCCCCCCCNC(=O)C(CCCCN=S=C=Nc1ccc2c(c1)C(=O)OC21c2ccc(O)cc2Oc2cc(O)ccc21)NC(=O)C[N+]12CC[N+]3(CC(=O)O)CCN(CC(=O)O)CC[N+](CC(=O)O)(CC1)[Gd]32 (stereo not drawn) [compound 10, Gd-DOTA-Lys(FITC) aminoundecylic aldehyde]
uptake into the cells (FITC staining, CLSM) ([1]; 260 μM): very well uptaken into the cytoplasm | uptake into the cells (FITC staining, CLSM) [7]: not into the osteosarcoma cells | staining (FITC fluorescence, FACS) [8]: stained | staining (FITC fluorescence, FACS) [9]: stained | staining (FITC fluorescence, FACS) [10]: stained | staining (FITC fluorescence, FACS) [11]: not the non-prostate tumor cell lines | uptake / signal intensity of the cells in T1-weighted MRT images ([12]; LNCaP, 20 minutes incubation, washed, 130 μM): uptaken into the cytoplasm of the prostate carcinoma cells; also recorded: increase of the signal intensity | difference of the T1-time (before minus after the incubation) ([12]; LNCaP, rank among cell lines): strongest reduction of the T1-time | T1-time reduction in comparison to simple Gd-DOTA ([12]; prostate carcinoma cells (LNCaP)): significantly stronger T1-time reduction | difference of the T1-time (before minus after the incubation) [13]: strongest reduction of the T1-time | difference of the T1-time (before minus after the incubation) [14]: strongest reduction of the T1-time | signal intensity of the cells in T1-weighted MRT images [15]: only with the LNCaP-prostate carcinoma cells | MRT staining of non-prostate carcinoma cells [16]: remain unstained | MRT signal of the prostate carcinoma cells ([16]; 10 days after implantation): increased signal intensity
